Experiments:
[1] = test system: paddy rice plant (cultivar: Nihonbare); experiment: Test Example 3: phytotoxicity test for transplanted paddy rice plant; format: in vivo; details: dosage 1000 g/ha; transplanted rice, treated 5 days after transplantation; 21 days after treatment
How it was run: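 Clay loam soil was placed in a 75 cm^2 plastic pot and flooded to a water depth of 5 cm. Two Nihonbare paddy rice plants at the two-leaf stage were transplanted 1 cm deep and grown in a hot house. After treatment, pots stayed in the hot house for 21 days, and phytotoxicity was then graded against an untreated control.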

false pimpernel [2] = experiment: Test Example 2: herbicidal efficacy on rice paddy weeds post-emergence; format: in vivo, Lindernia pyxidaria; details: dosage 1000 g/ha; post-emergence, one leaf stage; 21 days after treatment
[3] = test system: transplanted paddy rice plant and Bulrush; experiment: Test Example 5: selectivity between transplanted paddy rice plant and weeds; format: in vivo; details: (highest dosage with no phytotoxicity to paddy rice)/(lowest dosage with effective level 4 on Bulrush); rice 3000-100 g/ha, Bulrush 300-10 g/ha; 21 days
How it was run: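 Transplanted paddy rice was treated at 3000, 1000, 300 and 100 g/ha active ingredient for phytotoxicity, and post-emergence bulrush at 300, 100, 30 and 10 g/ha. Plants were kept in a hothouse for 21 days. Growth inhibition versus untreated control was scored 0–4 (0%, 1–39%, 40–69%, 70–89%, 90–100%).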

bulrush [4] = experiment: Test Example 1: herbicidal efficacy on rice paddy weeds pre-emergence; format: in vivo, Scirpus juncoides; details: dosage 1000 g/ha, 21 days
bulrush [5] = experiment: Test Example 4: low dosage test for rice paddy weeds; format: in vivo, Scirpus juncoides; details: 300 g/ha as an active ingredient; plants treated at the one leaf stage; 21 days after treatment; vs untreated control
How it was run: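 Bulrush sown in clay loam pots, flooded to 5 cm water in a hot house, treated at the one-leaf stage with formulated compound at 300 g/ha. Efficacy scored 0–4 against untreated control 21 days after treatment (4 = 90–100%, 0 = 0% inhibition).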

bulrush [6] = experiment: Test Example 2: herbicidal efficacy on rice paddy weeds post-emergence; format: in vivo, Scirpus juncoides; details: dosage 1000 g/ha; post-emergence, one leaf stage; 21 days after treatment
false pimpernel [7] = experiment: Test Example 1: herbicidal efficacy on rice paddy weeds pre-emergence; format: in vivo, Lindernia pyxidaria; details: dosage 1000 g/ha, 21 days
barnyard glass = experiment: Test Example 2: herbicidal efficacy on rice paddy weeds post-emergence; format: in vivo, Echinochloa crus-galli; details: dosage 1000 g/ha; post-emergence, one leaf stage; 21 days after treatment
How it was run: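 Plastic pots of 75 cm^2 were filled with clay loam soil and sown with barnyard glass and bulrush seeds, then topped with 75 cm^3 soil containing false pimpernel seeds. The pots were flooded to 5 cm water depth and held in a hot house. Twenty-one days after treatment, herbicidal efficacy was graded against an untreated control.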

SMILES | Phytotoxicity to paddy rice [1] | melting point [°C] | False pimpernel post (herbicidal efficacy grade) (false pimpernel [2]) | Selective Index [3] | Bulrush pre (herbicidal efficacy grade) (bulrush [4]) | Herbicide effect to Bulrush (bulrush [5]) | Bulrush post (herbicidal efficacy grade) (bulrush [6]) | False pimpernel pre (herbicidal efficacy grade) (false pimpernel [7]) | Burnyard grass post (herbicidal efficacy grade) (barnyard glass)
CC1(C)COC(=O)N1Cc1ccccc1NS(=O)(=O)C(F)(F)F [Compound No. 1-15, 4,4-dimethyl-3-[2-(trifluoromethanesulfonylamino)benzyl]-2-oxazolidinone] | 1 (1%-39% of herbicidal efficacy or phytotoxicity) | 134.9 | 4 (90%-100% of herbicidal efficacy or phytotoxicity) | 10 | 4 (90%-100% of herbicidal efficacy or phytotoxicity) | 4 (90%-100% of herbicidal efficacy or phytotoxicity) | 4 (90%-100% of herbicidal efficacy or phytotoxicity) | 4 (90%-100% of herbicidal efficacy or phytotoxicity) | 4 (90%-100% of herbicidal efficacy or phytotoxicity)
CC(C)COC(=O)N(c1ccccc1CN1C(=O)OCC1(C)C)S(=O)(=O)C(F)(F)F [Compound No. 1-16, 4,4-dimethyl-3-{2-[N-(isobutoxycarbonyl)-N-(trifluoromethanesulfonyl)amino]benzyl}-2-oxazolidinone] | 0 (0% of herbicidal efficacy or phytotoxicity) | 65 to 65.8 | 4 (90%-100% of herbicidal efficacy or phytotoxicity) | 33 | 4 (90%-100% of herbicidal efficacy or phytotoxicity) | 4 (90%-100% of herbicidal efficacy or phytotoxicity) | 4 (90%-100% of herbicidal efficacy or phytotoxicity) | 4 (90%-100% of herbicidal efficacy or phytotoxicity) | 4 (90%-100% of herbicidal efficacy or phytotoxicity)
